#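 Briefly, cells in 96-well plates were exposed to five compound concentrations for 48 h, and endpoints were estimated by linear interpolation. Abbreviation: GI50, concentration required for 50% inhibition of growth.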 Active and inactive are the calls of the source. No stated cut-off is given here; in the data, active = GI50 up to about 1.1 µM and inactive = higher.
# How the values were obtained:
# Assay in all cases: inhibition of tumour cell growth, NCI panel, 48 h
# [1] = system: HCC 2998
# [2] = system: T47D
# [3] = system: NCI-H460
# [4] = system: HCT-116
# [5] = system: HL-60
# [6] = system: SNB-19
# [7] = system: ACHN
# [8] = system: MOLT-4
# [9] = system: NCI-H23
# [10] = system: MDA-MB-231
# [11] = system: SF-295
# [12] = system: UACC-62
# [13] = system: RPMI-8226
# [14] = system: SF-539
# [15] = system: OVCAR-5
# [16] = system: MDA-MB-435
# [17] = system: CCRF-CEM
# [18] = system: M14
# [19] = system: IGROV-1
# [20] = system: MDA-N
SMILES,GI50 [1],GI50 [2],GI50 [3],GI50 [4],GI50 [5],GI50 [6],GI50 [7],GI50 [8],GI50 [9],GI50 [10],GI50 [11],GI50 [12],GI50 [13],GI50 [14],GI50 [15],GI50 [16],GI50 [17],GI50 [18],GI50 [19],GI50 [20]
CCSc1nc(=S)n(-c2ccccc2)c(C)c1C(C)=O,> 100 µM (inactive),> 100 µM (inactive),> 100 µM (inactive),> 100 µM (inactive),> 100 µM (inactive),> 94.6 µM (inactive),> 100 µM (inactive),> 100 µM (inactive),> 100 µM (inactive),> 100 µM (inactive),> 100 µM (inactive),> 100 µM (inactive),> 100 µM (inactive),> 100 µM (inactive),> 100 µM (inactive),> 100 µM (inactive),> 100 µM (inactive),> 100 µM (inactive),> 100 µM (inactive),
Cc1ccc(CCCC(=O)O)cc1C,,,> 100 µM (inactive),> 100 µM (inactive),> 100 µM (inactive),> 100 µM (inactive),> 100 µM (inactive),> 100 µM (inactive),> 100 µM (inactive),> 100 µM (inactive),> 100 µM (inactive),> 100 µM (inactive),> 100 µM (inactive),,> 100 µM (inactive),> 100 µM (inactive),> 100 µM (inactive),> 100 µM (inactive),> 100 µM (inactive),> 100 µM (inactive)
O=C1CSc2ccnc(=O)n21,> 100 µM (inactive),,> 100 µM (inactive),> 100 µM (inactive),> 100 µM (inactive),> 100 µM (inactive),> 100 µM (inactive),> 100 µM (inactive),> 100 µM (inactive),,,> 100 µM (inactive),> 100 µM (inactive),> 100 µM (inactive),> 100 µM (inactive),> 100 µM (inactive),> 100 µM (inactive),> 100 µM (inactive),> 100 µM (inactive),> 100 µM (inactive)
COc1cc(C2c3c(ccc4ccccc34)C(=O)C3CCC(=O)N32)cc(OC)c1O (stereo not given),,> 25 µM (inactive),> 25 µM (inactive),> 25 µM (inactive),> 25 µM (inactive),> 25 µM (inactive),> 25 µM (inactive),> 25 µM (inactive),> 25 µM (inactive),,> 25 µM (inactive),> 25 µM (inactive),> 25 µM (inactive),> 25 µM (inactive),> 25 µM (inactive),> 25 µM (inactive),19.9 µM (inactive),> 25 µM (inactive),> 25 µM (inactive),> 25 µM (inactive)
O=C(O)CN1CCN2CCOCCN(CC1)CCN(CC(=O)O)CC2,> 100 µM (inactive),> 100 µM (inactive),> 100 µM (inactive),> 100 µM (inactive),> 53.3 µM (inactive),> 100 µM (inactive),> 100 µM (inactive),> 100 µM (inactive),> 100 µM (inactive),> 100 µM (inactive),> 100 µM (inactive),> 100 µM (inactive),> 100 µM (inactive),> 100 µM (inactive),> 100 µM (inactive),> 100 µM (inactive),> 100 µM (inactive),> 100 µM (inactive),> 100 µM (inactive),
CCOC(=O)C1=C(C)OC2(O)C=CC(O)=C3C(=O)N(c4ccccc4)C(=O)C312 (stereo not given),37.3 µM (inactive),45.1 µM (inactive),> 100 µM (inactive),54.8 µM (inactive),29.4 µM (inactive),22.8 µM (inactive),31.8 µM (inactive),29.7 µM (inactive),40.8 µM (inactive),37.8 µM (inactive),> 100 µM (inactive),29.9 µM (inactive),14.9 µM (inactive),29.1 µM (inactive),58.5 µM (inactive),37.8 µM (inactive),,50.5 µM (inactive),29 µM (inactive),
CC(/C=N\NC(=S)N1CCCCC1)=N/NC(=S)N1CCCCC1,1.63 µM (inactive),,0.358 µM (active),0.627 µM (active),,2.14 µM (inactive),0.611 µM (active),0.514 µM (active),2.42 µM (inactive),2.45 µM (inactive),0.627 µM (active),0.671 µM (active),2.32 µM (inactive),3.65 µM (inactive),2.69 µM (inactive),2.75 µM (inactive),,1.28 µM (inactive),1.04 µM (active),2.89 µM (inactive)
